This is an account of results in patent US12209096B2, “Compounds and compositions for inducing chondrogenesis” (NOVARTIS AG, priority 2017, dated 2025).

Some results are limits rather than exact numbers.

One assay has as its system NHACs. Put plainly: calcium flux assay. It counts as cell-based, human. The following applies: Homo sapiens; for Emax: read-out: (A) % Efficacy. The procedure, abridged: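 FLIPR fluorescence (ex 470–495 nm, em 515–575 nm) was read before and after compound dispense at the indicated dose. Chondrocytes (NHACs), 2000 cells/well, had been dye-loaded 24 h after plating with Calcium 5 in HBSS/HEPES plus 5 mM probenecid, 1 h, room temperature.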
A general note: Calcium flux is commonly read through the fluorescence of an indicator in the cells.

For the next assay, the system named is C3H10T1/2 cell line. Put plainly: alkaline phosphatase assay in C3H10T1/2. The following applies: Mus musculus, C3H 10T1/2, 144 h, alkaline phosphatase assay in C3H10T1/2, 6 days; for Emax: read-out: (D) % Efficacy; for IC50: read-out: (D) IC50. It is filed as cell-based. The protocol: To initiate differentiation in C3H10T1/2, Clone 8 (ATCC cat #CCL-226), 4,000 cells were plated/well in 384 Perkin Elmer CellCarrier Ultra plate in DMEM/High glucose (HyClone cat #SH30022.01) containing 10% FBS and 1× Antibiotic/Antimycotic (HyClone cat #SV30079.01). After 24 hours the test compound was then added to each well at the indicated dose. The cultures were grown at 37° C. for 6 days.
To detect the presence of hypertrophic cells, C3H10T1/2 were fixed with 4% paraformaldehyde and Hoeschst dye for 20 minutes, rinsed in PBS, then stained with Fast Blue RR Salt with Naphthol AS-MX Phosphate Alkaline Solution.
The ALP staining was imaged by fluoresecent microscopy, using the 561 wavelength, and/or quantified by high content imagining with the ImageXpress Micro Confocal (Molecular Devices, Sunnyvale, CA). Data analyses were performed with the customized multiwavelength cell-scoring application looking at the number of ALP positive cells per well.

The EC50 is the concentration giving half of the maximal effect. For orientation: IC50 means the point on the concentration scale where inhibition reaches its midpoint. On to `Cn1ccc([C@H]2[C@H]3O[C@H](C[C@@H]3O)[C@@H]2C(=O)Nc2ccc(Cl)c(Cl)c2)n1` [Example 153, (1R,2R,3S,4R,5S)—N-(3,4-dichlorophenyl)-5-hydroxy-3-(1-methyl-1H-pyrazol-3-yl)-7-oxabicyclo[2.2.1]heptane-2-carboxamide], for which, in the assay with NHACs, the concentration for a half-maximal effect (EC50) was determined as 19 µM and the Emax amounted to 121%. Also, in the assay on C3H10T1/2 cell line, the Emax turned out to be 46% and the IC50 is more than 20 µM.
For `O=C(Nc1ccc(Cl)c(Cl)c1)[C@@H]1[C@H]2O[C@H]([C@@H]3C[C@@H]32)[C@H]1c1cncnc1` (single isomer, unassigned) [Example 126b] the same measures were 5.6 µM, 103%, 42% and more than 20 µM.
The matching figures for `Cc1cc([C@H]2[C@H]3O[C@H]([C@@H]4C[C@@H]43)[C@@H]2C(=O)Nc2cccc(OC(F)(F)F)c2)ccn1` [Example 69, (1S,2S,4R,5R,6R,7S)-7-(2-methylpyridin-4-yl)-N-(3-(trifluoromethoxy)phenyl)-8-oxatricyclo[3.2.1.0^2,4]octane-6-carboxamide]: 21 µM, 180%, 63% and more than 20 µM.
The matching figures for `O=C(Nc1cnc(Cl)c(Cl)c1)[C@H]1[C@@H]2O[C@@H]([C@H]3C[C@H]32)[C@@H]1c1ccnc(F)c1F` [Example 124, (1S,2S,4R,5R,6R,7S)—N-(5,6-dichloropyridin-3-yl)-7-(2,3-difluoropyridin-4-yl)-8-oxatricyclo[3.2.1.0^2,4]octane-6-carboxamide]: 2.8 µM, 160%, 59% and 17 µM.
On to `Cc1cc([C@@H]2[C@@H](C(=O)Nc3ccc(Cl)c(Cl)c3)[C@@H]3O[C@H]2C[C@H]3O)ccn1` (single isomer, unassigned) [Example 77b], for which, in the assay with NHACs, the concentration for a half-maximal effect (EC50) worked out at 20 µM and the Emax came to 157%. Moreover, in the assay with C3H10T1/2 cell line, the Emax is 47% and the 50% inhibitory concentration (IC50) is more than 20 µM.
In the case of `Cc1cc([C@H]2[C@H]3O[C@H](C[C@H]3NC3CCOCC3)[C@@H]2C(=O)Nc2ccc(Cl)c(Cl)c2)ccn1` [Example 169, (1R,2R,3S,4R,5R)—N-(3,4-dichlorophenyl)-3-(2-methylpyridin-4-yl)-5-((tetrahydro-2H-pyran-4-yl)amino)-7-oxabicyclo[2.2.1]heptane-2-carboxamide], in the assay on NHACs, the concentration giving a half-maximal response (EC50) is more than 50 µM and the Emax stood at 69%. In the assay on C3H10T1/2 cell line, the Emax turned out to be 54% and the half-inhibitory concentration (IC50) was more than 20 µM.
For `Cc1cc([C@H]2[C@H]3O[C@H](C[C@H]3O)[C@@H]2C(=O)Nc2ccc(Cl)c(Cl)c2)ccn1` [Example 180, (1R,2R,3S,4R,5R)—N-(3,4-dichlorophenyl)-5-hydroxy-3-(2-methylpyridin-4-yl)-7-oxabicyclo[2.2.1]heptane-2-carboxamide] the same measures were 30 µM, 113%, 69% and 11 µM.
On to `O=C(Nc1ccc(Cl)c(Cl)c1)[C@H]1[C@@H](c2ccnc(C(F)(F)F)c2)[C@H]2O[C@@H]1C[C@@H]2O` (single isomer, unassigned) [Example 54a], for which, in the assay on NHACs, the EC50 is 3.5 µM and the Emax is 45%. Moreover, in the assay on C3H10T1/2 cell line, the Emax stood at 35% and the IC50 is more than 20 µM.
On to `COc1ccc(NC(=O)[C@H]2[C@@H]3O[C@@H]([C@H]4C[C@H]43)[C@@H]2c2cccc(C(F)(F)F)n2)cn1` [Example 128, (1S,2S,4R,5R,6R,7S)—N-(6-methoxypyridin-3-yl)-7-(6-(trifluoromethyl)pyridin-2-yl)-8-oxatricyclo[3.2.1.0^2,4]octane-6-carboxamide], for which, in the assay with NHACs, the EC50 was more than 50 µM and the Emax worked out at 27%. Further, in the assay on C3H10T1/2 cell line, the Emax was determined as 39% and the half-maximal inhibitory concentration (IC50) is more than 20 µM.
